{"source": "patent US20060252727A1", "about": "“Medicinal compositions and therapeutic methods for treating arthritis and other painful conditions” (priority 2001, published 2006)", "key": {"[1]": {"tested_on": "PBQ writhing in mice", "test": "Anti-inflammatory activity, mouse phenylbenzylquinone (PBQ) writhing test", "format": "in vivo", "settings": "for Number of writhes: counted over 20 minutes", "description": "Anti-inflammatory activity of DPA using the mouse phenylbenzylquinone (PBQ) writhing test. This is a generally recognized method for evaluating anti-inflammatory drugs of the aspirin/NSAID type, i.e. those drugs which counteract the action of the prostaglandins. Such drugs are useful for treating conditions such as arthritis in animals and humans.\nIn this method, a solution of PBQ was injected subcutaneously into groups of 6 mice (male, albino, 22-25 grams). Within a few minutes, the mice began to writhe. DPA was injected intra-peritoneally or given by mouth at different times prior to PBQ. The number of writhes was counted over a period of 20 minutes. The effects of DPA were compared to that of similarly administered saline control."}, "[2]": {"tested_on": "pain in patients with arthritis and other skeletal diseases", "test": "Efficacy of DPA in humans with arthritis and other musculoskeletal diseases (open-label, cross-over)", "format": "in vivo, human", "description": "4. Efficacy of DPA treatment for arthritis and a variety of other musculoskeletal diseases; human studies. Forty-three patients were studied in an open-label, cross-over procedure. Of these, 32 had arthritis. All of the patients had previously been given many treatments, without success, in relieving their pain. Pre-DPA administration treatments used included such potent drugs as Percodan, Darvocet, Valium, and aspirin, as well as acupuncture. Prior to giving DPA 800 mg/day by mouth, all treatments were stopped. Patients were given a card on which they scored their degree of pain, on a scale of 1-4; 1 indicated no relief, 2 indicated approximately 25% relief, 3 indicated approximately 50% relief, and 4 indicated complete relief."}, "[3]": {"tested_on": "PBQ writhing in mice", "test": "Anti-inflammatory activity, mouse phenylbenzylquinone (PBQ) writhing test", "format": "in vivo", "settings": "for Number of writhes: counted over 20 minutes", "remark": "listed apart in the source"}, "[4]": {"tested_on": "mouse hot plate jumping threshold", "test": "Analgesic activity, mouse hot plate test", "format": "in vivo", "source_text": "Analgesic activity of DPA using the mouse hot plate test. The mouse hot plate is a generally recognized method for evaluating analgesic drugs that act on the endorphin system, e.g., morphine-like drugs and drugs that increase endorphin levels, e.g., DPA. Such drugs are useful for treating many kinds of painful conditions, including arthritis, headache, low back pain, musculoskeletal pain, pre-menstrual pain, and dental pain.\nIn this method, groups of mice (6 albino mice per group, weighing between 22 and 25 grams) are individually placed on a hot plate at 55° C. and a beaker is placed over the mouse. The time for the mouse to jump in an attempt to escape the painful condition is recorded. An analgesic substance is one which increases the threshold to pain, thereby permitting the mouse to remain on the hot plate for longer times. The effect of the drug is compared to that of a saline control. DPA at different doses was injected intra-peritoneally into the mice 2 hours before they were placed on the hot plate, and jumping time determined over the next 1-2 hours. The effect of DPA was compared with that of an injection of saline.\nFor studies involving combinations of drugs, the combination was injected at the same time. In the studies shown below, the second drug consisted of indomethacin, diclofenac, or acetaminophen. Each of these drugs is used for treating arthritis, as well as many other painful conditions."}, "[5]": {"tested_on": "carrageenan swelling of the rat paw", "test": "Anti-inflammatory activity, rat paw carrageenan method", "format": "in vivo", "description": "Anti-inflammatory activity of DPA using the rat paw carrageenan method. This is a generally recognized method for evaluating anti-inflammatory drugs of the aspirin/NSAID (as used throughout this application NSAID refers to a non-steroidal, anti-inflammatory drug) type or those that counteract the action of the prostaglandins. Such drugs are useful for treating conditions such as arthritis in animals and humans. In this method, the paw of the rat is injected with carrageenan, which causes swelling of the paw due to the accumulation of fluid. […] In this study, DPA was administered by various routes and times into groups of rats (6 male albino rats per group-weight approximately 250 grams) before carrageenan and the degree of swelling was measured by the extent of displacement of water when the paw was immersed into a calibrated cylinder. A placebo consisting of saline solution was similarly administered."}, "[6]": {"settings": "DPA 800 mg/day by mouth, 43 patients, 32 with arthritis, self-scored pain relief"}, "[7]": {"settings": "NSAID alone, 20 mg/kg, hot plate at 55° C."}}, "note": "Marks after values point to notes of the source that are not given here.", "data": [{"smiles": "N[C@H](Cc1ccccc1)C(=O)O", "note": "[DPA, D-phenylalanine]", "values": [{"measurement": "% inhibition of writhing", "setting": "[1]; intra-peritoneal injection, 2 hours before PBQ, 250 mg/kg", "value": 73, "unit": "%"}, {"measurement": "Number of writhes", "setting": "[1]; intra-peritoneal injection, 2 hours before PBQ, 250 mg/kg, saline 125", "value": 34}, {"measurement": "% inhibition of writhing", "setting": "[1]; intra-peritoneal injection, 2 hours before PBQ, 500 mg/kg", "value": 90, "unit": "%"}, {"measurement": "Number of writhes", "setting": "[1]; intra-peritoneal injection, 2 hours before PBQ, 500 mg/kg, saline 125", "value": 13}, {"measurement": "% inhibition of writhing", "setting": "[1]; oral administration, 2.5 hours before PBQ, 250 mg/kg", "value": 10, "unit": "%"}, {"measurement": "Number of writhes", "setting": "[1]; oral administration, 2.5 hours before PBQ, 250 mg/kg, saline 148", "value": 133}, {"measurement": "Number of writhes", "setting": "[1]; oral administration, 2.5 hours before PBQ, 500 mg/kg, saline 148", "value": 110}, {"measurement": "% inhibition of writhing", "setting": "[1]; oral administration, 2.5 hours before PBQ, 1000 mg/kg", "value": 62, "unit": "%"}, {"measurement": "Number of writhes", "setting": "[1]; oral administration, 2.5 hours before PBQ, 1000 mg/kg, saline 148", "value": 56}, {"measurement": "Complete relief of pain (number of patients)", "setting": "[2]; [6]", "value": 2}, {"measurement": "Excellent relief of pain (number of patients)", "setting": "[2]; [6]", "value": 7}, {"measurement": "Moderate relief of pain (number of patients)", "setting": "[2]; [6]", "value": 19}, {"measurement": "No relief of pain (number of patients)", "setting": "[2]; DPA 800 mg/day by mouth, 43 patients, most of these took DPA for only 1-2 weeks", "value": "15*"}, {"measurement": "effect on pain in humans", "setting": "[2]; DPA alone, 800 mg/day", "value": "successfully decrease"}, {"measurement": "% inhibition of writhing", "setting": "[3]; oral administration, 2.5 hours before PBQ, 500 mg/kg", "value": 24, "unit": "%"}, {"measurement": "% inhibition of writhing", "setting": "[3]; subcutaneous injection, 6 hours before PBQ, 62.5 mg/kg", "value": 35, "unit": "%"}, {"measurement": "Number of writhes", "setting": "[3]; subcutaneous injection, 6 hours before PBQ, 62.5 mg/kg, saline 166", "value": 108}, {"measurement": "% inhibition of writhing", "setting": "[3]; subcutaneous injection, 6 hours before PBQ, 250 mg/kg", "value": 36, "unit": "%"}, {"measurement": "Number of writhes", "setting": "[3]; subcutaneous injection, 6 hours before PBQ, 250 mg/kg, saline 166", "value": 106}, {"measurement": "% inhibition of writhing", "setting": "[3]; subcutaneous injection, 6 hours before PBQ, 500 mg/kg", "value": 75, "unit": "%"}, {"measurement": "Number of writhes", "setting": "[3]; subcutaneous injection, 6 hours before PBQ, 500 mg/kg, saline 110", "value": 28}, {"measurement": "Increase in the threshold to jumping, compared to control", "setting": "[4]; DPA 250 mg/kg intra-peritoneally, 2 hours before hot plate at 55° C.", "value": "3-fold"}, {"measurement": "increase of the threshold time to jump, as compared to saline control", "setting": "[4]; mouse hot plate, as shown in Table 3", "value": "three-fold"}, {"measurement": "% Inhibition of swelling", "setting": "[5]; oral administration, 150 minutes before carrageenan, 125 mg/kg", "value": 7, "unit": "%"}, {"measurement": "% Inhibition of swelling", "setting": "[5]; oral administration, 150 minutes before carrageenan, 250 mg/kg", "value": 10, "unit": "%"}, {"measurement": "% Inhibition of swelling", "setting": "[5]; oral administration, 150 minutes before carrageenan, 500 mg/kg", "value": 24, "unit": "%"}, {"measurement": "% Inhibition of swelling", "setting": "[5]; oral administration, 150 minutes before carrageenan, 1000 mg/kg", "value": 62, "unit": "%"}, {"measurement": "% Inhibition of swelling", "setting": "[5]; oral administration, 150 minutes before carrageenan, 1500 mg/kg", "value": 79, "unit": "%"}, {"measurement": "% Inhibition of swelling", "setting": "[5]; subcutaneous injection, 120 minutes before carrageenan, 8 mg/kg", "value": 15, "unit": "%"}, {"measurement": "% Inhibition of swelling", "setting": "[5]; subcutaneous injection, 120 minutes before carrageenan, 125 mg/kg", "value": 37, "unit": "%"}, {"measurement": "% Inhibition of swelling", "setting": "[5]; subcutaneous injection, 120 minutes before carrageenan, 500 mg/kg", "value": 35, "unit": "%"}, {"measurement": "% Inhibition of swelling", "setting": "[5]; subcutaneous injection, 6 hours before carrageenan, dose 62.5", "value": 35, "unit": "%"}, {"measurement": "% Inhibition of swelling", "setting": "[5]; subcutaneous injection, 6 hours before carrageenan, dose 250", "value": 36, "unit": "%"}, {"measurement": "% Inhibition of swelling", "setting": "[5]; subcutaneous injection, 6 hours before carrageenan, dose 500", "value": 75, "unit": "%"}]}, {"smiles": "O=C(O)Cc1ccccc1Nc1c(Cl)cccc1Cl", "note": "[Diclofenac, diclofenac, reference compound]", "values": [{"measurement": "Increase in the threshold to jumping, compared to control", "setting": "[4]; [7]", "value": 0}]}, {"smiles": "COc1ccc2c(c1)c(CC(=O)O)c(C)n2C(=O)c1ccc(Cl)cc1", "note": "[Indomethacin, indomethacin, reference compound]", "values": [{"measurement": "Increase in the threshold to jumping, compared to control", "setting": "[4]; [7]", "value": 0}]}]}
